The source of these data is patent US20090221522A1, “METHODS TO CORRECT GENE SET EXPRESSION PROFILES TO DRUG SENSITIVITY” (The Johns Hopkins University, priority 2008, published 2009).

For experiment [1], the system named is patient-derived xenografts refractory to gemcitabine. The experiment can be described thus: Pre-clinical second-line study in xenografts refractory to gemcitabine (TGI). The format is in vivo, mice. Conditions: for TGI: treated with gemcitabine (first line). On the procedure: FIG. 11 illustrates a pre-clinical design.
FIG. 12 illustrates validation on the xenografts of FIG. 11 based on prediction according to the present invention. Four xenograft cases were used. […] A case is defined as a responder to the drug treatment if Tumor Growth Inhibition (TGI) is <20%. Negative TGI values indicate tumor regression.
(§1) Relative tumor growth index (TGI) was calculated as TGI=(Ti−T0/Ci−C0) if Ti>T0 (indicates tumor growth inhibition) and TGI=(Ti−T0) if Ti≦T0 (indicates tumor regression). T and C represent tumor size in the treated and control group at the last of experiment, respectively; T0 and C0 represent tumor size in the treated and control group at the start of treatment, respectively.
Seven FDA approved anticancer agents (capecitabine, cisplatin, docetaxel, doxorubicin, etoposide, irinotecan and oxaliplatin) were used as potential second line of drugs for selection according to the present invention. The one-size-fits-all treatment was erlotinib, an FDA approved targeted therapy for advanced pancreatic cancer. See Moore M J, Goldstein D, Hamm J, et al. Erlotinib plus gemcitabine compared with gemcitabine alone in patients with advanced pancreatic cancer: a phase Ill trial of the National Cancer Institute of Canada Clinical Trials Group. J Clin Oncol 25:1960-06 2007. […] Xenograft models of these cases were randomly assigned to (i) control, (ii) erlotinib arm (one-size-fits-all second line treatment) and (iii) molecular mimicry arm (i.e., drug selection according to the present invention). For the molecular mimicry arm, the baseline gene expression profiles of these cases were connected the NCI reference panel using GS-CMAP, and one of the seven anticancer agents was assigned to the case based on comparing the GI50 among these drugs. Molecular mimicry predicted that JH033 and JH034 are sensitive to docetaxel, PANC185 is sensitive to irinotecan and PANC219 is sensitive to doxorubicin. These cases were treated with the molecular mimicry choice of drugs and tumor volumes were measured. At the end of the experiment, xenografts treated with molecular mimicry choice of drugs had higher tumor growth inhibition than their litter mates treated with erlotinib (FIGS. 12 and 13).

The subject of experiment [2] is direct-patient pancreatic cancer xenografts. The experiment can be described thus: Xenograft treatment, relative tumor growth inhibition (TGI). The format is in vivo, mice.
Description: Four- to six-week-old female athymic (nu/nu) mice were purchased from Harlan (Harlan Laboratories, Washington, D.C.). The research protocol was approved by the Johns Hopkins University Animal Use and Care Committee and animals were maintained in accordance to guidelines of the American Association of Laboratory Animal Care. Xenografts obtained from F1 mice were excised and cut into small ˜3×3×3 mm fragments and then implanted subcutaneously in a group of five to six mice for each patient, with two small fragments in each mouse (F2) as described above for the original carcinoma. Half of the rest of the carcinoma was cryopreserved in liquid nitrogen and the other half is processed for biological studies. When the carcinoma reached a size of 1,500 mm^3, they were excised, cut into ˜3×3×3 mm fragments, and transplanted to the final cohort of mice to be treated with the drugs (F3 and successive passages). Further details of the establishment of the direct-patient pancreatic cancer xenografts are described in Rubio-Viqueira B, Jimeno A, Cusatis G, et al. An In vivo Platform for Translational Drug Development in Pancreatic Cancer. Clin Cancer Res 2006 12:4652-61.
Gemcitabine (Eli Lilly, Indianapolis, Ind.) was dissolved in saline. In some embodiments, docetaxel (Sanofi-Aventis, Bridgewater, N.J.) was dissolved in 50% ethanol and 50% DMSO. In other embodiments, docetaxel (Sanofi-Aventis, Bridgewater, N.J.) was dissolved in ethanol/polysorbate 80 as a stock solution and diluted 10-fold in 5% glucose for in vivo studies. Temsirolimus (Wyeth Research, Colleville, Pa.) was dissolved in 10% ethanol, 10% pluronic, and 80% PBS. All drugs were freshly prepared and used at an injection volume of 0.2 mL/20 g body weight. Drug doses and treatment schedules were obtained from published studies.
Xenografts from this second mouse-to-mouse passage (F3) were allowed to grow to a size of ˜200 mm^3, at which time five-to-six mice were randomly assigned to control and treatment groups. […] For docetaxel treatment group, mice were treated with 20 mg/kg once a week via intraperitoneal injection. For temsirolimus treatment group, mice were treated with 20 mg/kg/day via intraperitoneal injection. Mice were treated for 21-28 days, monitored daily for signs of toxicity, and were weighed thrice a week. Tumor size was evaluated thrice a week by caliper measurements using the following formula: tumor volume=[length×width^2]/2 as reported by van de Vijver M J, He Y D, van't Veer L J, et al. A Gene-Expression Signature as a Predictor of Survival in Breast Cancer. N Engl J Med 2002 347:1999-2009.
as §1

Another experiment has as its system pancreatic cancer. As to conditions: cited from earlier work.

Each structure is given as a SMILES string.

Turning to `Nc1ccn([C@@H]2O[C@H](CO)[C@@H](O)C2(F)F)c(=O)n1` [gemcitabine], the “median TGI” value in experiment [1] (four xenograft cases (PANC185, PANC219, JH033, JH034)) is recorded as 36.5%. The TGI entry in experiment [1] (xenograft JH033) is reported as “more than 20%”; in experiment [1] (xenograft JH034) it was “more than 20%”; in experiment [1] (xenograft PANC185) it was “more than 20%”; in experiment [1] (xenograft PANC219) it was “more than 20%”; in experiment [2] (xenograft PANC194, gemcitabine) it was −63%. For the same molecule, the “average TGI” value in experiment [2] (five xenografts connected to gemcitabine sensitive NCI-60 cell lines) was −24%. The “responders (TGI less than −30%, RECIST criterion)” value in experiment [2] (of thirty xenografts, gemcitabine, PANC194, PANC266, PANC294, PANC140, PANC253) is on record as “five responders”. For the same molecule, the “patients who benefit from this therapy” value in the experiment on pancreatic cancer (first-line) is on record as roughly 20%. Further, in the experiment on pancreatic cancer (pancreatic cancer patients), the response rate result is recorded as “less than 20%”.
